Experimental data taken from US10723692B2, “Lipids and lipid nanoparticle formulations for delivery of nucleic acids” (Acuitas Therapeutics, Inc., priority 2014, dated 2020).
Read-outs that look alike come from different tables or passages of the source.

Assays:
[1] = pKa of formulated cationic lipids in lipid nanoparticles (TNS fluorescence assay); type: physicochemical; details: read-out: pKa
Method: As described elsewhere, the pKa of formulated cationic lipids is correlated with the effectiveness of LNPs for delivery of nucleic acids (see Jayaraman et al, Angewandte Chemie, International Edition (2012), 51(34), 8529-8533; Semple et al, Nature Biotechnology 28, 172-176 (2010)). The preferred range of pKa is ˜5 to ˜7. […] Lipid nanoparticles comprising of cationic lipid/DSPC/cholesterol/PEG-lipid (50/10/38.5/1.5 mol %) in PBS at a concentration of 0.4 mM total lipid are prepared using the in-line process as described in EXAMPLE 47. TNS was prepared as a 100 μM stock solution in distilled water. Vesicles were diluted to 24 μM lipid in 2 mL of buffered solutions containing, 10 mM HEPES, 10 mM MES, 10 mM ammonium acetate, 130 mM NaCl, where the pH ranged from 2.5 to 11. An aliquot of the TNS solution was added to give a final concentration of 1 μM and following vortex mixing fluorescence intensity was measured at room temperature in a SLM Aminco Series 2 Luminescence Spectrophotometer using excitation and emission wavelengths of 321 nm and 445 nm. A sigmoidal best fit analysis was applied to the fluorescence data and the pKa was measured as the pH giving rise to half-maximal fluorescence intensity (see FIG. 2).

[2] = test system: luciferase expression in the liver; assay: In vivo luciferase mRNA expression rodent model (LNP, liver luciferase); set-up: species or system C57BL/6 mice; details: tail vein, liver 4 hours; for Liver Luc @ 0.3 mg/kg (ng luc/g liver): 0.3 mg mRNA/kg; for Liver Luc @ 1.0 mg/kg (ng luc/g liver): 1.0 mg mRNA/kg
Method: Cationic lipid (MC3), DSPC, cholesterol and PEG-lipid were solubilized in ethanol at a molar ratio of 50:10:38.5:1.5. Lipid nanoparticles (LNP) were prepared at a total lipid to mRNA weight ratio of approximately 10:1 to 30:1. Briefly, the mRNA was diluted to 0.2 mg/mL in 10 to 50 mM citrate buffer, pH 4. Syringe pumps were used to mix the ethanolic lipid solution with the mRNA aqueous solution at a ratio of about 1:5 to 1:3 (vol/vol) with total flow rates above 15 ml/min. The ethanol was then removed and the external buffer replaced with PBS by dialysis. Finally, the lipid nanoparticles were filtered through a 0.2 μm pore sterile filter. Lipid nanoparticle particle size was 70-90 nm diameter as determined by quasi-elastic light scattering using a Nicomp 370 submicron particle sizer (Santa Barbara, Calif.).
Studies were performed in 6-8 week old female C57BL/6 mice (Charles River) according to guidelines established by an institutional animal care committee (ACC) and the Canadian Council on Animal Care (CCAC). Varying doses of mRNA-lipid nanoparticle were systemically administered by tail vein injection and animals euthanized at specific time points (1, 2, 4, 8 and 24 hrs) post-administration. Liver and spleen were collected in pre-weighted tubes, weights determined, immediately snap frozen in liquid nitrogen and stored at −80° C. until processing for analysis.
For liver, approximately 50 mg was dissected for analyses in a 2 mL FastPrep tubes (MP Biomedicals, Solon Ohio). ¼″ ceramic sphere (MP Biomedicals) was added to each tube and 500 μL of Glo Lysis Buffer—GLB (Promega, Madison Wis.) equilibrated to room temperature was added to liver tissue. Liver tissues were homogenized with the FastPrep24 instrument (MP Biomedicals) at 2×6.0 m/s for 15 seconds. Homogenate was incubated at room temperature for 5 minutes prior to a 1:4 dilution in GLB and assessed using SteadyGlo Luciferase assay system (Promega). Specifically, 50 μL of diluted tissue homogenate was reacted with 50 μL of SteadyGlo substrate, shaken for 10 seconds followed by 5 minute incubation and then quantitated using a CentroXS^3 LB 960 luminometer (Berthold Technologies, Germany). The amount of protein assayed was determined by using the BCA protein assay kit (Pierce, Rockford Ill.). Relative luminescence units (RLU) were then normalized to total ug protein assayed. To convert RLU to ng luciferase a standard curve was generated with QuantiLum Recombinant Luciferase (Promega). Based in the data provided in FIG. 1, the four-hour time point was chosen for efficacy evaluation of the lipid formulations (see EXAMPLE 48).
The FLuc mRNA (L-6107) from Trilink Biotechnologies will express a luciferase protein, originally isolated from the firefly, Photinus pyralis. FLuc is commonly used in mammalian cell culture to measure both gene expression and cell viability. It emits bioluminescence in the presence of the substrate, luciferin. This capped and polyadenylated mRNA is fully substituted with 5-methylcytidine and pseudouridine.
The cationic lipids shown in Table 2 have previously been tested with nucleic acids. For comparative purposes, these lipids were also used to formulate lipid nanoparticles containing the FLuc mRNA (L-6107) using an in line mixing method, as described in EXAMPLE 47 and in PCT/US10/22614, which is hereby incorporated by reference in its entirety. Lipid nanoparticles were formulated using the following molar ratio: 50% Cationic lipid/10% distearoylphosphatidylcholine (DSPC)/38.5% Cholesterol/1.5% PEG lipid (“PEG-DMG”, i.e., (1-(monomethoxy-polyethyleneglycol)-2,3-dimyristoylglycerol, with an average PEG molecular weight of 2000). Relative activity was determined by measuring luciferase expression in the liver 4 hours following administration via tail vein injection as described in EXAMPLE 47. The activity was compared at a dose of 0.3 and 1.0 mg mRNA/kg and expressed as ng luciferase/g liver measured 4 hours after administration, as described in EXAMPLE 47. […]

[3] = Table 6, LNP with 1.5% PEG-lipid (42-6)
[4] = Table 3, in LNP cationic lipid/DSPC/cholesterol/PEG-lipid 50/10/38.5/1.5 mol %
[5] = Table 3, LNP with 1.5% PEG-DMA (42-6), FLuc mRNA

SMILES | pKa ([1]; Table 5, in LNP) | pKa ([1]; Table 6, in LNP) | pKa [1, 4] | Liver Luc @ 0.3 mg/kg (ng luc/g liver) [2, 3] [ng luc/g liver] | Liver Luc @ 1.0 mg/kg (ng luc/g liver) [2, 3] [ng luc/g liver] | Liver Luc @ 0.3 mg/kg (ng luc/g liver) [2, 5] [ng luc/g liver] | Liver Luc @ 1.0 mg/kg (ng luc/g liver) [2, 5] [ng luc/g liver]
CCCCC/C=C\C/C=C\CCCCCCCCN(CCCCCCCC/C=C\C/C=C\CCCCC)CCN(C)C [A, reference compound] | 6.26 | – | – | 77 ± 40 | 203 ± 122 | – | –
CCCCC/C=C\C/C=C\CCCCCCCCN(CCCCCCCC/C=C\C/C=C\CCCCC)CCCN(C)C [B, reference compound] | – | 6.68 | – | 3 ± 0.8 | 12 ± 4 | – | –
CCCCC/C=C\C/C=C\CCCCCCCCN(CCCCCCCC/C=C\C/C=C\CCCCC)CCCCN(C)C [C, reference compound] | – | 7.32 | – | 2 ± 0.5 | 7 ± 2 | – | –
C/C(=C\COC(=O)CCCCCN(CCCCCC(=O)OC/C=C(\C)CCCC(C)CCCC(C)CCCC(C)C)CCN(C)C)CCCC(C)CCCC(C)CCCC(C)C (stereo not drawn) [Compound 2] | – | – | 5.64 | – | – | 23 ± 6 | 84 ± 24
C/C(=C\COC(=O)CN(CCN(C)C)CC(=O)OC/C=C(\C)CCCC(C)CCCC(C)CCCC(C)C)CCCC(C)CCCC(C)CCCC(C)C (stereo not drawn) [Compound 3] | – | – | 7.15 | – | – | 1.5 ± 0.6 | 0.32 ± 0.1
CCCCC(CC)C(=O)OCCCCCCCCCCCCN(CCCCCCCCCCCCOC(=O)C(CC)CCCC)CCN(C)C (stereo not drawn) [Compound 4] | – | – | 6.43 | – | – | 53 ± 10 | 126 ± 102
CCCCCCCCCCCOC(=O)CCCCCCCCCN(CCCCCCCCCC(=O)OCCCCCCCCCCC)CCN(C)C [Compound 15] | – | – | 6.3 | – | – | 66 ± 32 | 243 ± 71
CCCCCCCCCCCOC(=O)CCCCCCCN(CCCCCCCC(=O)OCCCCCCCCCCC)CCN(C)C [Compound 16] | – | – | 6.63 | – | – | 7 ± 1 | 14 ± 4
CCCCCCCC/C=C/COC(=O)CCCCCCCN(CCCCCCCC(=O)OC/C=C/CCCCCCCC)CCN(C)C [Compound 19] | – | – | 6.72 | – | – | 8 ± 3 | 15 ± 21

The next lines start with results.

pKa ([1]; Table 5, in LNP) | pKa ([1]; Table 6, in LNP) | pKa [1, 4] | SMILES | Liver Luc @ 0.3 mg/kg (ng luc/g liver) [2, 3] [ng luc/g liver] | Liver Luc @ 1.0 mg/kg (ng luc/g liver) [2, 3] [ng luc/g liver] | Liver Luc @ 0.3 mg/kg (ng luc/g liver) [2, 5] [ng luc/g liver] | Liver Luc @ 1.0 mg/kg (ng luc/g liver) [2, 5] [ng luc/g liver]
– | – | 6.36 | CCCCCC(CCCC)OC(=O)CCCCCCCCCN(CCCCCCCCCC(=O)OC(CCCC)CCCCC)CCN(C)C (stereo not drawn) [Compound 11] | – | – | 328 ± 12 | 1266 ± 522
– | – | 6.51 | CCCCCCCCOC(=O)CCCCCCCCCN(CCCCCCCCCC(=O)OCCCCCCCC)CCN(C)C [Compound 13] | – | – | 16 ± 4 | 20 ± 20
– | – | 6.44 | CCCCCCC(CCCC)COC(=O)CCCCCCCN(CCCCCCCC(=O)OCC(CCCC)CCCCCC)CCN(C)C (stereo not drawn) [Compound 20] | – | – | 301 ± 155 | 501 ± 96
– | – | 6.28 | CCCCCCC(CCCC)COC(=O)CCCCCCCCCN(CCCCCCCCCC(=O)OCC(CCCC)CCCCCC)CCN(C)C (stereo not drawn) [Compound 21] | – | – | 404 ± 103 | 4149 ± 2514
– | – | 6.53 | CCCCCCCCC(CCCCCC)COC(=O)CCCCCN(CCCCCC(=O)OCC(CCCCCC)CCCCCCCC)CCN(C)C (stereo not drawn) [Compound 22] | – | – | 2126 ± 294 | 14486 ± 6607
– | – | 6.24 | CCCCCCCCC(CCCCCC)COC(=O)CCCCCCCN(CCCCCCCC(=O)OCC(CCCCCC)CCCCCCCC)CCN(C)C (stereo not drawn) [Compound 23] | – | – | 1109 ± 209 | 4568 ± 762
